Test results: US5486511A, “4-amino-17β-(cyclopropyloxy)androst-4-en-3-one, 4-amino-17β-(cyclopropylamino)androst-4-en-3-one and related compounds as C17-20 lyase and 5α-reductase” (Merrell Dow Pharmaceuticals Inc., priority 1994, dated 1996)

Molecular target: T1, cynomolgus monkey 5α-reductase (Macaca fascicularis, UniProt Q28892)
T1 construct: microsomes were isolated from cynomolgus monkey prostate tissue; from tissue; host or cells: cynomolgus monkey prostate microsomes
T1 sequence (Q28892 1-254): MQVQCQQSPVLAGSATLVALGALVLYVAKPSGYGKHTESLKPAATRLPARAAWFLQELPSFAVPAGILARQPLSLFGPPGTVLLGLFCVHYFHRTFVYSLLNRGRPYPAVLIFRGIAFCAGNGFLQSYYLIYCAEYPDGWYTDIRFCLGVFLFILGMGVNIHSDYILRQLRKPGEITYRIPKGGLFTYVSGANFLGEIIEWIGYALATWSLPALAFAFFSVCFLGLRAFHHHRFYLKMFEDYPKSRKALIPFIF
Assay: Inhibition of cynomolgus monkey prostatic 5α-reductase (prostate microsomes)
Assay type: biochemical
Settings: for IC50: testosterone at Km level
Experimental: The activity of the present compounds as inhibitors of steroid 5α-reductase was determined using microsomal preparations of the 5α-reductase enzyme from laboratory prostate tissue. Specifically, microsomes were isolated from cynomolgus monkey prostate tissue. Protein concentration of the microsomal preparations was determined prior to use of the samples. Individual assays of cynomolgus monkey prostatic 5α-reductase activity contained 0.1M potassium phosphate-sodium citrate buffer (K-Na buffer, 1:1), pH 5.6, 0.1% bovine serum albumin (w/v), 1.0 mM sodium EDTA, 7 to 96 μg of microsomal protein, 1.0 mM NADPH, 5.0 mM glucose-6-phosphate, 1 IU/mL glucose-6 -phosphate dehydrogenase, [1,2-^3 H]-testosterone (0.15 μCi), unlabeled testosterone to yield the desired concentration of substrate, and inhibitor which was dissolved in dimethyl sulfoxide (DMSO) then diluted in K-Na buffer to yield a final assay concentration of 0.1% (v/v) DMSO. The same buffer and DMSO without inhibitor were used in control assays. Background radioactivity was determined from assays containing all components except enzyme. Assays were performed in duplicate. The reaction was initiated by the addition of testosterone and incubated for 20 minutes at 25° C. in a Dubnoff® shaker incubator. Compound to be tested for inhibition was added simultaneously with testosterone. The total volume of the assay was 100 μL.
The 5α-reductase reactions were terminated by the addition of 5 mL chloroform-methanol (2:1) and 0.9 mL water. The carrier steroids were added in the form of 2.5 μg each of testosterone, dihydrotestosterone, and 3,17-androstanediol. […]

| Structure (SMILES) | Ki (testosterone 0.5 Km to 8 Km) | IC50 |
| --- | --- | --- |
| C[C@]12CC[C@H]3[C@@H](CCC4=C(N)C(=O)CC[C@@]43C)[C@@H]1CC[C@@H]2OC1CC1 [Compound 2, 4-Amino-17β-(cyclopropyloxy)androst-4-en-3-one] | 7.8 ± 0.7 nM | 7.4 nM |
| C[C@]12CC[C@H]3[C@@H](C=CC4=C(N)C(=O)CC[C@@]43C)[C@@H]1CC[C@@H]2OC1CC1 [Compound 1, 4-Amino-17β-(cyclopropyloxy)androsta-4,6-dien-3-one] |  | 2.8 nM |
